Where “and” joins values, the source holds several entries; their conditions need not be identical. Equal entries are not always repeated. Structures can show the parent of a compound that is named as a salt.
System: unanaesthetised hypertensive dogs
Test: Haemodynamic effects in unanaesthetised hypertensive dogs
Type: in vivo
Parameters: Δdp/dt / Δdp/dt average: unit not given beside the values; ΔBPs / ΔBPd / ΔLVEDP / ΔBPs average / ΔBPd average / ΔLVEDP average / ΔHR average: unit not given here
Details: for ΔBPd average / ΔBPs average / ΔHR average / ΔLVEDP average / Δdp/dt average: n = 3, 3 mg/kg p.o.; for ΔBPd / ΔBPs / ΔHR / ΔLVEDP / Δdp/dt: single dog
Procedure: Haemodynamic effects of the compounds according to the invention in unanaesthetised hypertensive dogs (n=3).
Table VI below and FIG. 1 show more particularly the change in the effect of compound (46) on the various haemodynamic parameters as a function of time, the compound being administered p.o. in a dosage of 3 mg/kg.

[1] = 3 mg/kg p.o., 10 min, monohydrochloride, 3 mg/kg
[2] = 3 mg/kg p.o., 20 min, monohydrochloride, 3 mg/kg
[3] = 3 mg/kg p.o., 30 min, monohydrochloride, 3 mg/kg
[4] = 3 mg/kg p.o., 60 min, monohydrochloride, 3 mg/kg
[5] = 3 mg/kg p.o., 90 min, monohydrochloride, 3 mg/kg
[6] = 3 mg/kg p.o., 120 min, monohydrochloride, 3 mg/kg
[7] = 3 mg/kg p.o., 180 min, monohydrochloride, 3 mg/kg
[8] = 3 mg/kg p.o., 240 min, monohydrochloride, 3 mg/kg
[9] = 3 mg/kg p.o., 300 min, monohydrochloride, 3 mg/kg
[10] = 3 mg/kg p.o., 360 min, monohydrochloride, 3 mg/kg

With `O=C(CNC(=O)[C@@H]1CSCN1)N[C@H]1CO[C@H]2[C@@H]1OC[C@@H]2O[N+](=O)[O-]` [Compound 46, 5-[[2-[[(4-L-Thiazolidinyl)carbonyl]amino]-1oxoethyl]amino]-5-deoxy-2-O-nitro-1,4:3,6-dianhydro-L-iditol monohydrochloride] the “lowering of left ventricular end-diastolic pressure (LVEDP)” value (3 mg/kg p.o.) was “significant, pronounced and prolonged”, the “lowering of systolic blood pressure (BPs)” value (3 mg/kg p.o.) was “significant, pronounced and prolonged” and the ΔBPd average (10 min) was -3. For the same molecule, the ΔBPs average (10 min) was -5, the ΔHR average (10 min) was 3 and the ΔLVEDP average (10 min) was -1. It also gave a Δdp/dt average (10 min) of -167, a ΔBPd average (20 min) of 0 and a ΔBPs average (20 min) of -2. For the same molecule, the ΔHR average (20 min) was 17, the ΔLVEDP average (20 min) was -2 and the Δdp/dt average (20 min) was 33. The ΔBPd average (30 min) was 2, the ΔBPs average (30 min) was -2 and the ΔHR average (30 min) was 7. The ΔLVEDP average (30 min) was -1, the Δdp/dt average (30 min) was 100 and the ΔBPd average (60 min) was 0. The ΔBPs average (60 min) was -22, the ΔHR average (60 min) was -7 and the ΔLVEDP average (60 min) was -4. For the same molecule, the Δdp/dt average (60 min) was 33, the ΔBPd average (90 min) was 3 and the ΔBPs average (90 min) was -28. The ΔHR average (90 min) was 23, the ΔLVEDP average (90 min) was -5 and the Δdp/dt average (90 min) was -33. For the same molecule, the ΔBPd average (120 min) was 5, the ΔBPs average (120 min) was -28 and the ΔHR average (120 min) was 33. The ΔLVEDP average (120 min) was -6, the Δdp/dt average (120 min) was 0 and the ΔBPd average (180 min) was 8. For the same molecule, the ΔBPs average (180 min) was -25, the ΔHR average (180 min) was 32 and the ΔLVEDP average (180 min) was -5. For the same molecule, the Δdp/dt average (180 min) was 0, the ΔBPd average (240 min) was 8 and the ΔBPs average (240 min) was -30. It also gave a ΔHR average (240 min) of 27, a ΔLVEDP average (240 min) of -5 and a Δdp/dt average (240 min) of -133. The ΔBPd average (300 min) was 8, the ΔBPs average (300 min) was -27 and the ΔHR average (300 min) was 27. For the same molecule, the ΔLVEDP average (300 min) was -2, the Δdp/dt average (300 min) was 33 and the ΔBPd average (360 min) was 8. It also gave a ΔBPs average (360 min) of -23, a ΔHR average (360 min) of 13 and a ΔLVEDP average (360 min) of -4. For the same molecule, the Δdp/dt average (360 min) was -133, the ΔBPd [1] was -5 and 0 and the ΔBPs [1] was -5 and 0 and -10. For the same molecule, the ΔHR [1] was 0 and 10, the ΔLVEDP [1] was -1 and 0 and -2 and the Δdp/dt [1] was -100 and 0 and -400. The ΔBPd (3 mg/kg p.o., 20 min) was 0, the ΔBPs [2] was 0 and -5 and the ΔHR [2] was 35 and 0 and 15. The ΔLVEDP [2] was -3 and 0 and -2, the Δdp/dt [2] was 300 and 0 and -200 and the ΔBPd [3] was 5 and 0. The ΔBPs [3] was 0 and -5, the ΔHR [3] was 0 and 10 and the ΔLVEDP [3] was 0 and -3. The Δdp/dt [3] was 0 and 500 and -200, the ΔBPd [4] was 5 and 0 and -5 and the ΔBPs [4] was -25 and -15. The ΔHR [4] was 10 and -10 and -20, the ΔLVEDP [4] was -7 and -3 and the Δdp/dt [4] was 0 and 500 and -400. The ΔBPd [5] was 5 and 10 and -5, the ΔBPs [5] was -30 and -25 and the ΔHR [5] was 35 and 45 and -10. The ΔLVEDP [5] was -7 and -6 and -3, the Δdp/dt [5] was -200 and 500 and -400 and the ΔBPd [6] was 5 and 10 and 0. For the same molecule, the ΔBPs [6] was -30 and -25, the ΔHR [6] was 55 and 63 and -20 and the ΔLVEDP [6] was -9 and -7 and -2. For the same molecule, the Δdp/dt [6] was -400 and 800, the ΔBPd [7] was 10 and 15 and 0 and the ΔBPs [7] was -15 and -25 and -35. The ΔHR [7] was 35 and 40 and 20, the ΔLVEDP [7] was -7 and -4 and the Δdp/dt [7] was -300 and 500 and -200. The ΔBPd [8] was 10 and 15 and 0, the ΔBPs [8] was -15 and -35 and -40 and the ΔHR [8] was 40 and 20. For the same molecule, the ΔLVEDP [8] was -7 and -5 and -4, the Δdp/dt [8] was -500 and 500 and -400 and the ΔBPd [9] was 10 and 15 and 0. For the same molecule, the ΔBPs [9] was -15 and -45 and -40, the ΔHR [9] was 45 and 40 and -5 and the ΔLVEDP [9] was -4 and 0 and -3. The Δdp/dt [9] was -300 and 800 and -400, the ΔBPd [10] was 10 and 15 and 0 and the ΔBPs [10] was -10 and -25 and -35. For the same molecule, the ΔHR [10] was 15 and 10, the ΔLVEDP [10] was -5 and -3 and -4 and the Δdp/dt [10] was -500 and 500 and -400.
